Results taken from US7786129B2, “Piperazine derivatives of dialkyl oxindoles” (Egis Gyogyszergyar Nyrt, priority 2004, dated 2010).
Counter-ions that a name gives are not always drawn. Marks after values point to notes of the source that are not given here.

Columns and labels:
[1] = target: T1, 5-HT1A receptor (Rattus norvegicus, UniProt P19327); test: 5-HT1A receptor binding; details: rat frontal cortex preparation, ligand tritiated 8-OH-DPAT
T1 construct: from tissue; host or cells: rat frontal cortex membrane preparation
T1 sequence (P19327 1-422): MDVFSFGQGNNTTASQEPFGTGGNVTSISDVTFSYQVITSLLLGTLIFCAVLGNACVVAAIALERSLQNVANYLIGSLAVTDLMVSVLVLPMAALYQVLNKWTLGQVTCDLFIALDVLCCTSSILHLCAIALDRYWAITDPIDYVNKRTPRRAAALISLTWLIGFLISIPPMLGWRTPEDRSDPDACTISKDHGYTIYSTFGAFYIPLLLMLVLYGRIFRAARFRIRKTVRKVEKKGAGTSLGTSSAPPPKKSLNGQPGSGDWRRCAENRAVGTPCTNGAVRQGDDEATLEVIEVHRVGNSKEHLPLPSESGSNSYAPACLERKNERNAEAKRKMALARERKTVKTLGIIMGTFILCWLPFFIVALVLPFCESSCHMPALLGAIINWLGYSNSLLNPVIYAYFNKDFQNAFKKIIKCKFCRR
Procedure: (§1) Receptor bindings—with the exception of the 5-HT2C receptor binding—were determined by using cerebral region preparations of male Wistar rats weighing 120-200 g. For the preparation of 5-HT1A receptor binding frontal cortex preparations were used. The al receptor binding studies were performed from isolated frontal cortex pre-parations. For the 5-HT2C receptor binding experiments choroid plexus of pigs was used. The protein contents of membrane preparations were determined by the method of Lowry (1951).
5-HT1A receptor binding was measured according to the method of Peroutka (Peroutka, S. J.: J. Neurochem. 47, p. 529 (1986)). The ligand was tritiated 8-hydroxy-N,N-dipropyl-2-aminotetraline (8-OH-DPAT). For the determination of non-specific binding 10 μM serotonin was applied. Incubation […] volume was 250 μl. Incubation was carried out at a temperature of 25 C for 30 minutes. The reaction was terminated by the addition of 9 ml of ice-cold 50 mM TRIS-HCl (pH 7.7) buffer and quick vacuum filtration using Whatman GFIB fibreglass filtering paper. Radioactivity of the filter boards was measured by liquid scintillation spectrometry.
(§2) The IC50 value is the value of concentration where the difference between total and non-specific binding is 50% in the presence of a determined concentration of a specific ligand.

[2] = test system: Male Wistar rats; test: Vogel's drinking conflict test; assay type: in vivo; details: ip, 0.5 h, rat, i.p. 30 min prior to test, increase in tolerated shocks, read-out: MED
Procedure: The anxiolytic effect of the compounds according to the invention was investigated on rats according to Vogel's drinking conflict test and elevated plus-maze test (S. Pelow, P. Chopin, S. E. File, J. Briley: Neurosci. Methods 14, p. 149 (1985)).
Male Wistar rats weighing 160-180 g were used for the experiment. The animals were deprived of drinking water for 48 hours and fasted for 24 hours prior to test. The test compounds or vehicle were administered intraperitoneally, 30 min prior to test. […] Following every 20 licks electric shocks (0.7 mA) were applied through the drinking spout during the 5 min test period. The number of punished licks were recorded. The effect of the test compounds was expressed as % increase in numbers of tolerated shocks. Minimal effective doses (MED) were determined for each compound.

[3] = target: T2, 5-HT2C receptor (Sus scrofa, UniProt K7GSR7); test: 5-HT2C receptor binding; design: species or system pig; details: choroid plexus of pigs, ligand 3H-mesulergin 1.0 nM
T2 construct: from tissue; host or cells: pig choroid plexus membrane preparation
T2 sequence (K7GSR7 1-457): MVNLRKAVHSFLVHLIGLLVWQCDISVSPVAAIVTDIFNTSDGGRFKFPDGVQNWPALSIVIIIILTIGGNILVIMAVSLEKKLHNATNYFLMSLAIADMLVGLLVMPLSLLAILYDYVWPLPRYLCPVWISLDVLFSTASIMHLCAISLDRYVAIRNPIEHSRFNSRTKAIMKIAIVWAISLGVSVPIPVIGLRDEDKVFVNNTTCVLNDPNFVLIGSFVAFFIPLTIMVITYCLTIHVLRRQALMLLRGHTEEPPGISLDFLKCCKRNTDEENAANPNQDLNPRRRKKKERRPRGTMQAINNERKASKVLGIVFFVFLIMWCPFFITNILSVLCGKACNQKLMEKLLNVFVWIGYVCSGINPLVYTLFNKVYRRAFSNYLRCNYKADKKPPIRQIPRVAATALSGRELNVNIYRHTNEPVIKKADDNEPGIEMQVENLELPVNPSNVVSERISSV
Procedure: as §1
(§3) In the course of 5-HT2C and α1 receptor binding experiments the ligands were ^3H-mesulergin (1.0 nM) and ^3H-prazosine (0.3 nM), respectively. The non-specifically binding ligands were mianserine (1 μM and prazosine (1 μM), respectively.
as §2

[4] = target: α1 receptor; test: α1 receptor binding experiment; details: rat isolated frontal cortex preparation, ligand 3H-prazosine 0.3 nM
Procedure: as §1, §3, §2

[5] = test system: Male Mongolian gerbils; test: Neuroprotective effect in global ischemia test (bilateral carotid occlusion); assay type: in vivo, Mongolian gerbil; details: gerbil
Procedure: Male Mongolian gerbils weighing 60-90 g were used as test animals. The test compounds were administered intraperitoneally at a dose of 30 mg/kg 45 min after surgery. Test substances were suspended in 0.4% methylcellulose solution. In diethylether narcosis, the right and left common carotid arteries were exposed through an anterior midline cervical incision and isolated from the vagus nerves and the surrounding tissues. Full arrest of carotid blood flow was achieved by tightening an aneurysm clip for 3 min. During surgery the body temperature of the animals was kept at the individual preoperative level (37.5±0.5° C.) with the help of a heating pad and a heating lamp.
4 days after the surgery the animals were anaesthetized with 60 mg/kg i.p nembutal (10 ml/kg) and perfused through the heart first with saline then with a fixative solution containing 0.1% glutaraldehyde, 4% paraformaldehyde and 0.2% picric acid in 0.1 M phosphate buffer (pH 7.4) for 30 min. The brain was removed from the skull and post fixed for at least 1 week at 4° C. in the same fixative solution.
Alternate coronal sections of 60 μm thickness were cut from different levels of the dorsal hippocampus by a microtome. The sections were repeatedly washed in 0.1 M phosphate buffer (pH 7.4) and stained by silver impregnation. The sections were stored twice in a preparatory solution (2% sodium hydroxide and 0.875% ammonium hydroxide solution) for 5 minutes, impregnated for 10 minutes in 0.875% ammonium hydroxide and 0.5% silver nitrate solution) and placed into a washing solution (0.5% sodium carbonate and 0.01% ammonium nitrate dissolved in a 29.1% aqueous ethanol solution) twice for 2 minutes and once for one minute. The slices were then developed in 9.9% ethanol solution containing 1.5% formaldehyde and 0.01% ammonium nitrate and fixed three times for 3 minutes in a 0.5% acetic acid solution. The stained slices were placed in 0.1M phosphate buffer (pH 7.4) and chrome gelatine, applied on plates, dehydrated and treated with xylol. The cover plates were fixed with DPX glue (Fluka).
The sections were examined under light microscopy and the overall neuronal damage in the hippocampal CA1 subfield in both hippocampi was scored on a 6-point scale: (O) undamaged, (1)—0-10%; (2)—10-30%; (3)—30-50%; (4)—50-70%; (5)—70-90%; (6)—90-100% cell loss. Group differences between drug-treated and vehicle-treated groups were statistically analysed by Mann-Whitney U-test.

IC50 [1] | melting point | SMILES | further results
> 200 nM |  | CCC1(CCCCN2CCN(c3ccccc3)CC2)C(=O)Nc2ccccc21 (centres unmarked) [Example 68, 3-[4-(4-Phenylpiperazin-1-yl)-butyl]-3-ethyl-1,3-dihydro-2H-indol-2-one monooxalate] | IC50 [3]: < 100 nM; minimal effective dose [2]: 10 mg/kg
> 400 nM |  | CCC1(CCCCN2CCN(c3ccc(Cl)c(C(F)(F)F)c3)CC2)C(=O)Nc2ccccc21 (centres unmarked) [Example 96, 3-{4-[4-(4-Chloro-3-trifluoromethyl-phenyl)-piperazin-1-yl]-butyl}-3-ethyl-1,3-dihydro-2H-indol-2-one monohydrochloride] | 
 | 152 to 154 °C | CC(C)CC1(CCCCN2CCN(c3cccc4c3OCCO4)CC2)C(=O)Nc2ccccc21 (centres unmarked) [Example 64, 3-{4-[4-(2,3-Dihydrobenzo[1,4]dioxin-5-yl)-piperazin-1-yl]-butyl}-3-isobutyl-1,3-dihydro-2H-indol-2-one] | IC50 [4]: < 50 nM
> 200 nM |  | CCC1(CCCCN2CCN(c3cccc(Cl)c3)CC2)C(=O)Nc2ccc(Br)cc21 (centres unmarked) [Example 61, 5-Bromo-3-{4-[4-(3-chlorophenyl)-piperazin-1-yl]-butyl}-3-ethyl-1,3-dihydro-2H-indol-2-one monooxalate] | IC50 [3]: < 100 nM
 | 169 to 170 °C | CCC1(CCCCN2CCN(c3cccc4c3OCCO4)CC2)C(=O)Nc2ccccc21 (centres unmarked) [Example 63, 3-{4-[4-(2,3-Dihydrobenzo[1,4]dioxin-5-yl)-piperazin-1-yl]-butyl}-3-ethyl-1,3-dihydro-2H-indol-2-one] | IC50 [4]: < 50 nM

Second part, the compound before the results:

SMILES | IC50 [1] | melting point | further results
CC(C)CC1(CCCCN2CCN(c3cccc(Cl)c3)CC2)C(=O)Nc2ccccc21 (centres unmarked) [Example 75, 3-{4-[4-(3-Chlorophenyl)-piperazin-1-yl]-butyl}-3-isobutyl-1,3-dihydro-2H-indol-2-one monohydrochloride] | > 200 nM |  | minimal effective dose [2]: 10 mg/kg
CCC1(CCCCN2CCN(c3ccccc3OC)CC2)C(=O)Nc2ccccc21 (centres unmarked) [Example 69, 3-Ethyl-3-{4-[4-(2-methoxyphenyl)-piperazin-1-yl]-butyl}-1,3-dihydro-2H-indol-2-one monooxalate] |  |  | minimal effective dose [2]: 10 mg/kg
CCC1(CCCCN2CCN(c3cccc(Cl)c3)CC2)C(=O)Nc2cc(F)c(Cl)cc21 (centres unmarked) [Example 89, 5-Chloro-3-{4-[4-(3-chlorophenyl)-piperazin-1-yl]-butyl}-3-ethyl-6-fluoro-1,3-dihydro-2H-indol-2-one monohydrochloride] | > 300 nM |  | 
CCC1(CCCCN2CCN(c3cccc(Cl)c3)CC2)C(=O)Nc2ccc(S(N)(=O)=O)cc21 (centres unmarked) [Example 72, 3-{4-[4-(3-Chlorophenyl)-piperazin-1-yl]-butyl}-3-ethyl-1,3-dihydro-2H-indol-2-one 5-sulfonamide monooxalate] | > 200 nM |  | IC50 [3]: < 100 nM
CCC1(CCCCN2CCN(c3ccccn3)CC2)C(=O)Nc2ccc(Br)cc21 (centres unmarked) [Example 59, 5-Bromo-3-ethyl-3-[4-(4-pyridin-2-yl-piperazin-1-yl)-butyl]-1,3-dihydro-2H-indol-2-one] |  | 114 to 115 °C | IC50 [4]: < 100 nM
CCC1(CCCN2CCN(c3cccc(Cl)c3)CC2)C(=O)Nc2ccc(Cl)cc21 (centres unmarked) [Example 57, 5-Chloro-3-{3-[4-(3-chlorophenyl)-piperazin-1-yl]-propyl}-3-ethyl-1,3-dihydro-2H-indol-2-one] |  | 117 to 119 °C | IC50 [3]: < 50 nM
CCC1(CCCCN2CCN(c3ccc(Cl)cc3)CC2)C(=O)Nc2ccc(F)cc21 (centres unmarked) [Example 90, 3-{4-[4-(4-Chlorophenyl)-piperazin-1-yl]-butyl}-3-ethyl-5-fluoro-1,3-dihydro-2H-indol-2-one] | > 300 nM | 148 to 150 °C | Effect (%) ([5]; change of CA1 cell loss score vs. control, 30 mg/kg i.p.): −38%; CA1 cell loss (score) ([5]; 30 mg/kg i.p. 45 min after surgery, scored 4 days after surgery on 6-point scale): 2.73* score
CCC1(CCCCN2CCN(c3cccc(Cl)c3)CC2)C(=O)Nc2c(Cl)cc(Cl)cc21 (centres unmarked) [Example 79, 5,7-Dichloro-3-[4-[4-(3-chlorophenyl)-piperazin-1-yl]-butyl]-3-ethyl-1,3-dihydro-2H-indol-2-one] | > 400 nM | 182 to 183 °C | 
CCC1(CCCCN2CCN(c3ccc(Cl)cc3)CC2)C(=O)Nc2cc(F)ccc21 (centres unmarked) [Example 86, 3-{4-[4-(4-Chlorophenyl)-piperazin-1-yl]-butyl}-3-ethyl-6-fluoro-1,3-dihydro-2H-indol-2-one] | > 300 nM | 145 to 147 °C | 
CCC1(CCCCN2CCN(c3ccccn3)CC2)C(=O)Nc2ccccc21 (centres unmarked) [Example 71, 3-Ethyl-3-[4-(4-pyridin-2-yl-piperazin-1-yl)-butyl]-1,3-dihydro-2H-indol-2-one] |  |  | minimal effective dose [2]: 20 mg/kg
CC(C)CC1(CCCCN2CCN(c3ccccn3)CC2)C(=O)Nc2ccccc21 (centres unmarked) [Example 62, 3-Isobutyl-3-[4-(4-pyridin-2-yl-piperazin-1-yl)-butyl]-1,3-dihydro-2H-indol-2-one] |  | 158 to 159 °C | IC50 [4]: < 100 nM
CCC1(CCCCN2CCN(c3cccc(Cl)c3)CC2)C(=O)Nc2ccccc21 (centres unmarked) [Example 60, 3-{4-[4-(3-Chlorophenyl)-piperazin-1-yl]-butyl}-3-ethyl-1,3-dihydro-2H-indol-2-one-H2O—HCl-isopropanol (1:1:1:1)] |  |  | IC50 [4]: < 100 nM
